{
  "source": "paper PMC6637260",
  "about": "(2019)",
  "key": {"[1]": {"system": "Tel22 (DNA, G4) AGGGTTAGGGTTAGGGTTAGGG", "assay": "ITC", "conditions": "10 mM Tris, 1 mM EDTA, pH 7.4, 20 °C"}, "[2]": {"system": "F21T (DNA, G4) GGGTTAGGGTTAGGGTTAGGG", "assay": "FRET melting", "conditions": "100 mM KCl; 10 mM lithium cacodylate pH 7.2; 1 µM TPE-Im, 200 nM F21T (5:1)"}, "[3]": {"system": "ds43 (DNA, duplex) CGTCACGTAAATCGGTTAACAAATGGCTTTCGAAGCTAGCTTC/GAAGCTAGCTTCGAAAGCCATTTGTTAACCGATTTACGTGACG", "assay": "FRET melting competition", "conditions": "100 mM KCl; 10 mM lithium cacodylate pH 7.2; 10 equivalents ds43 lower F21T ΔT1/2 from 19.5 to 7 °C"}},
  "data": [
    {"molecule": "C[n+]1ccn(-c2ccc(C(=C(c3ccc(-n4cc[n+](C)c4)cc3)c3ccc(-n4cc[n+](C)c4)cc3)c3ccc(-n4cc[n+](C)c4)cc3)cc2)c1", "values": [
      {"measurement": "Ka", "setting": "[1]; 100 mM KCl", "value": "2.4 (±1.0).10^5 M^-1"},
      {"measurement": "Ka", "setting": "[1]; 100 mM NaCl", "value": "3.2 (±1.1).10^5 M^-1"},
      {"measurement": "ΔT1/2", "setting": "[2]", "value": 19.5, "unit": "°C"},
      {"measurement": "binding", "setting": "[3]", "value": "weak"}
    ]}
  ]
}
